In article PMC4272272 (PLoS ONE, 2014):
Read-outs that look alike come from different tables or passages of the source.

What was measured:
[1] = set-up: method as in PMID 23445717; conditions: cited from earlier work
[2] = cited from earlier work; for Liraglutide AUC lower than in healthy subjects, on average: single dose, ref 1 (Jacobsen et al., 2009) of supplement
plasma glucose = conditions: CGM, mean ± SD, n = 10
Description: CGM was performed both off-hemodialysis (day 2) and on-hemodialysis (day 3).
The mean, maximum, and minimum glucose concentrations; SD; and MAGE were analyzed using a paired t-test and 95% confidence interval (CI) for the mean ratio (on-hemodialysis/off-hemodialysis). Because these values could be logarithmically transformed, the transformed data were used for analyses. […] In these cases, the original non-transformed values were analyzed by paired t-test. […] Values of p<0.05 were considered significant.

[3] = set-up: method as in earlier work; conditions: ref 2 (Ishida et al., 2011) of supplement, cited from earlier work
[4] = tested on: albumin and α-acidic glycoprotein; conditions: plasma protein binding; cited from earlier work
Source text: Insulin treatment remains the main therapy for the control of hyperglycemia in diabetic patients with ESRD requiring hemodialysis, but it sometimes induces severe hypoglycemia.

[5] = Safety assessment (adverse events, physical examination, vital signs) after liraglutide; assay type: in vivo, human; conditions: off-hemodialysis (day 2) or on-hemodialysis (day 3); 0.6 or 0.9 mg s.c.; 10 patients
Description: The severity and causal relationship to liraglutide of all treatment-related adverse events in these patients were assessed by the investigators. A physical examination, including vital signs (blood pressure and heart rate) and clinical laboratory biochemical tests, was also performed on each patient.

[6] = human, in vivo; cited from earlier work

## CCCCCCCCCCCCCCCC(=O)N[C@@H](CCC(=O)NCCCC[C@H](NC(=O)[C@H](C)NC(=O)[C@H](C)NC(=O)[C@H](CCC(N)=O)NC(=O)CNC(=O)[C@H](CCC(=O)O)NC(=O)[C@H](CC(C)C)NC(=O)[C@H](Cc1ccc(O)cc1)NC(=O)[C@H](CO)NC(=O)[C@H](CO)NC(=O)[C@@H](NC(=O)[C@H](CC(=O)O)NC(=O)[C@H](CO)NC(=O)[C@@H](NC(=O)[C@H](Cc1ccccc1)NC(=O)[C@@H](NC(=O)CNC(=O)[C@H](CCC(=O)O)NC(=O)[C@H](C)NC(=O)[C@@H](N)Cc1cnc[nH]1)[C@@H](C)O)[C@@H](C)O)C(C)C)C(=O)N[C@@H](CCC(=O)O)C(=O)N[C@@H](Cc1ccccc1)C(=O)N[C@H](C(=O)N[C@@H](C)C(=O)N[C@@H](Cc1c[nH]c2ccccc12)C(=O)N[C@@H](CC(C)C)C(=O)N[C@H](C(=O)N[C@@H](CCCNC(=N)N)C(=O)NCC(=O)N[C@@H](CCCNC(=N)N)C(=O)NCC(=O)O)C(C)C)[C@@H](C)CC)C(=O)O [liraglutide]
[1]; 0.3 mg/day, nine diabetic Japanese patients with ESRD
  Adverse events: no adverse events
[1]; 0.3 mg, diabetic patients with ESRD undergoing hemodialysis
  Mean period of hypoglycemia after liraglutide administration: approximately 50 min/day
[2]; end-stage renal disease
  Liraglutide AUC lower than in healthy subjects, on average: 26%
[2]; mild renal impairment
  Liraglutide AUC lower than in healthy subjects, on average: 33%
[2]; moderate renal impairment
  Liraglutide AUC lower than in healthy subjects, on average: 14%
[2]; severe renal impairment
  Liraglutide AUC lower than in healthy subjects, on average: 27%
[2]; single injection 0.75 mg, non-diabetic Caucasian patients with varying degrees of renal impairment
  Adverse events: 2 events of vomiting and 1 event of nausea
Plasma glucose; off-hemodialysis (day 2)
  AUC during 24 hr in hyperglycemia (>180 mg/dL): 7746.0 ± 17246.4 mg·min/dL
  MAGE (mean amplitude of glycemic excursions): 55.6 ± 27.4 mg/dL
  Minimum glucose level: 92.7 ± 27.1 mg/dL
  Time during 24 hr in hyperglycemia (>180 mg/dL): 214.5 ± 388.4 min
Plasma glucose; on-hemodialysis (day 3)
  AUC during 24 hr in hyperglycemia (>180 mg/dL): 11427.5 ± 19184.4 mg·min/dL
  MAGE (mean amplitude of glycemic excursions): 90.0 ± 65.7 mg/dL
  Minimum glucose level: 88.4 ± 21.4 mg/dL
  Time during 24 hr in hyperglycemia (>180 mg/dL): 210.0 ± 282.9 min
[3]; 19 patients switched from insulin
  Patients withdrawn from liraglutide treatment due to nausea: Two patients
[3]; 30% of the subjects complained before the switch
  Hypoglycemia symptoms after the switch to liraglutide: not observed
[3]; from 5.3±0.5 before the switch from insulin, p= 0.07, 19 patients
  Glycosylated haemoglobin 1c (HbA1c) after one month of liraglutide: 5.1±0.5
[3]; from 21.0±2.2 before the switch from insulin, p= 0.02, 19 patients
  Glycoalbumin (GA) after one-month treatment of liraglutide: 19.4±2.4%
[4]
  Liraglutide binding to albumin and α-acidic glycoprotein: approximately 99%
[5]
  Adverse events, including signs of hypoglycemia: No adverse events

## exenatide
[6]
  AUC0–∞ in non-diabetic patients with ESRD relative to healthy controls: 3.37 times
  Cmax in non-diabetic patients with ESRD relative to healthy controls: 1.38 times
